Source: publication PMC9413201, “Covalent Proteomimetic Inhibitor of the Bacterial FtsQB Divisome Complex” (Journal of the American Chemical Society, 2022)
Where two headings read alike, the source gives them in different places.

Columns and labels:
[1] = tested on: E. coli lptD4213 (imp); assay: Growth assay (OD600) with outer membrane-permeable E. coli lptD4213 (imp); assay type: cell-based; conditions: for Δt1/2 (delay in growth compared to DMSO-treated sample): inhibitor c = 50 μM, MOPS medium, 37 °C
Protocol: Growth assays were performed to assess the in vitro cytotoxicity of peptides. The experiments were executed under sterile conditions. For each assay, 20 mL of fresh MOPS medium was prepared (Teknova Inc MOPS EZ Rich Defined Medium Kit | M2105: 40 mM MOPS, 4 mM Tricine, 0.01 mM FeSO4, 9.5 mM NH4Cl, 0.276 mM […]
MOPS medium with Streptomycin (30 μg/mL) and incubated overnight at 200 rpm and 37°C. The next day, the […]
peptide stocks in DMSO were diluted to four times the desired highest concentration to be measured in MOPS medium. The peptide dilutions were vortexed and briefly centrifuged. 50 μL of MOPS medium was added to each well of a Corning® 96-well Clear Flat Bottom Polystyrene TC-treated Microplate. A twofold dilution series was performed by adding 50 μL of the diluted peptide to the top row, mixing it and taking 50 μL to the next row. At each step the solution was resuspended five times. This was repeated until the last row which was skipped in order to obtain a reference measurement. After 2-3 h, the E.coli lptD4213 (imp) pre-culture was diluted to an OD600 of 0.00005. Then, 50 μL of diluted culture were added to each well and the plate sealed using a lid and parafilm. The OD600 was measured every 15 min over a period of more than 20 h (continuously shaking, 37°C) using a BioTek Synergy H1 plate reader. The obtained data were analyzed and relative growth curves plotted with GraphPad Prism 8. The assays were performed as technical triplicates. A single overnight pre-culture was used to prepare the diluted MOPS culture used in the growth assay. […]

[2] = molecular target: T1, FtsQ(50–276) (Escherichia coli, UniProt P06136); assay type: biochemical, E. coli; design: pET16b FtsQ(50˗276), a His6 fusion; made in house; host or cells: Escherichia coli BL21 DE3
Protocol: 1.5 Protein modification assay
To determine the reactivity of the different modifiers FtsQ(50˗276) was diluted to a concentration of 100 µM in 20 mM NH4HCO3 buffer (pH 7.6, 150 mM NaCl). The individual peptides were diluted to a concentration of 250 μM in the same buffer. Equal volumes of both solutions were mixed and incubated at 37 °C for the given time period (1 h or 3 h). The reaction was quenched using 5x SDS sample buffer (pH 6.8, 1.875 g TRIS-Cl, 25 mL glycerol, 5 g SDS, 12.5 mL β-mercaptoethanol, 0.5 % bromphenol blue and add 50 mL ddH2O). Samples were heated to 96 °C for 2 min and subsequently analysed by 17 % tris/tricine PAGE (15 min at 90 V and then 3:45 h at 150 V). PageRuler™ Prestained Protein Ladder, 10 to 180 kDa (Thermo Scientific™) was used as a ladder.
Staining was performed using standard Coomassie Staining Solution (40 mL EtOH, 0.3 g Coomassie Blue R250, 0.3 g Coomassie Blue G250, ad 100 mL ddH2O.) and then destained using water.
17 % Tris/Tricine gel (2x):
Running gel: 1.6 mL H2O, 5.5 mL AB-mix, 2.5 mL Buffer A, 100 μL 10% APS, 10 μL 1% TEMED Stacking gel: 2.1 mL H2O, 0.5 mL AB-mix, 0.38 mL Buffer A, 50 μL 10% APS, 5 μL 1% TEMED […]
Buffer A (4x) pH 8.45 3M Tris, 0.3 % SDS; Anode Buffer (10x) pH 8.8, 3M Tris; Cathode buffer (10x) 1M Tris, […]

[3] = tested on: FtsB-mNG localization in E. coli lptD4213 (imp); assay: Localization of FtsB-mNG (fluorescence microscopy); assay type: cell-based; conditions: peptide c = 100 μM, 60 min after addition, MOPS rich medium, 37 °C
Protocol: were incubated for 1 h at 50 °C. The condensates were collected by centrifuging for 10 s. The digests were mixed for a few seconds and transferred to another tube. 0.5 % TFA was added to inactivate trypsin. The samples were […]
E.coli mutant lptD4213 (imp)
MOPS: MOPS EZ Rich Defined Medium Kit M2105 (Teknova).
At the end of the day, the cells
The next day, the cells were grown and diluted […]
objective. […] In all experiments, the cells […]
ex470/40, dic495LP, em525/50).

[4] = molecular target: T1, FtsQ(50–276); conditions: tryptic digest, LC-MS/MS
Protocol: μM CaCl2, 50 mM NaCl, traces of (NH4)6Mo7O24, H3BO3, CoCl2, CuSO4, MnCl2 and ZnSO4, 1.32 mM dibasic anhydrous […], 0.20% glucose, 1.5 mM KOH, 0.199 mM adenine, cytosine, uracil and guanine and 0.01 mM to 10 mM amino acids). A preculture of E.coli lptD4213 (imp) was prepared in 5 mL MOPS medium with streptomycin (30 μg/mL), which was grown overnight at 200 rpm and 37°C. The next day, the overnight culture was diluted a thousandfold and grown up to an OD600 of about 0.5 at 200 rpm and 37°C. After 2-3h, the culture was diluted to an OD600 of 0.1. 10 mM peptide stocks in DMSO were subsequently diluted to 200 μM in MOPS medium. For measuring two time points, a total volume of 110 μL peptide dilution was prepared, for 3 timepoints this was 160 μL. For each time point, 50 μL of diluted peptide was added into an Eppendorf tube, to which 50 μL diluted culture was added (final peptide concentration: 100 μM, starting OD600 = 0.05). The tubes were incubated for either 1,3 or 6 h at 200 rpm and 37°C. Then the cells were fixed using 8.3 μL 37% formaldehyde solution in H2O and incubated for 5 min at 200 rpm and 37°C. Subsequently, the mixture was centrifuged at 500 rpm for 5 min, after which the supernatant was discarded. The pellets were redissolved in 7.5 μL PBS buffer and stored at […]
Microscopy slides were prepared by melting 1% Nobel Agarose in MiliQ water in a microwave. 800 μL was dispersed over a well slide, a microscopy slide was put on top and air bubbles were removed. The agar was allowed to cool for 15 min, after which the microscopy slide was removed. The frozen samples were thawed and 3 μL of each sample was added to separate wells, after which a covering glass was put on top. Using an Olympus IX83 microscope with 100 times magnification ocular and phase contrast (halogen lamp wat approximately 7V), the morphology of the cells was investigated. Pictures were taken and subsequently analyzed with ImageJ and the ObjectJ Cell Counter (https://sils.fnwi.uva.nl/bcb/objectj/examples/CellCounter/cellcounter-md/cellcounter.html, accessed on February 2020).
For the MS/MS experiment samples were prepared as follows. The FtsQ(50˗276) stock solution was diluted to 100 μM and the stock of peptide 24fα was diluted to 250 μM with previously used binding buffer (20 mM NH4HCO3 (pH 7.6), 150 mM NaCl). 10 μL of each diluted stock were merged and the resulting mixture incubated over night at 37 °C. Then the samples were mixed with 5x SDS Sample buffer and 2.5 μL/lane loaded on to a 17% tris/tricine PAGE. The gel was run for 15 min at 90 V and 2h at 150 V.
A container of glass was prepared and extensively washed with soda and water. The gel was placed in the container and incubated in fixing solution (50% EtOH, 3% H3PO4) overnight to remove SDS. The next day, the fixing solution was removed and the gel washed with water a couple of times. Colloidal Coomassie staining solution (34% MeOH, 3 % H3PO4, 150 g (NH4)2SO4/L, 1 g/L G250) was added and the gel stained for 2 d. Then the gel was washed 3x for 30 min with water. Then the bands corresponding to modified and unmodified FtsQ were cut out (1 mm3 pieces) from the gel and transferred to original Eppendorf tubes. The gel pieces were washed with 200 μL water by vortex mixing for 30 s. Then the water was discarded. The gel pieces were then washed with 200 μL MeOH:50 mM NH4HCO3 (1:1 v/v) for 1 min with intermittent vortex mixing. The supernatant was discarded and the procedure repeated once. Then the gel pieces were dehydrated for 5 min in 200 μL of ACN: 50 mM NH4HCO3 (1:1 v/v) with intermittent vortex mixing. The supernatants were discarded and 200 μL of 100 % ACN added, mixed and incubated for 30 s. The samples were dried in a SpeedVac (appr. 5 min). They were then […]
rehydrated in 20 μL of 12 ng/μL Trypsin in 0.01% ProteaseMAX surfactant (Promega): 50 mM NH4HCO3 (Trypsin gold stock 1 μg/μl from Promega, high thermostability) for 10 min (2 μL to 200 μL) and overlayed with […]

[5] = OD600 every 15 min over 22 h, n = 3 technical replicates

T1 sequence (P06136 50-276): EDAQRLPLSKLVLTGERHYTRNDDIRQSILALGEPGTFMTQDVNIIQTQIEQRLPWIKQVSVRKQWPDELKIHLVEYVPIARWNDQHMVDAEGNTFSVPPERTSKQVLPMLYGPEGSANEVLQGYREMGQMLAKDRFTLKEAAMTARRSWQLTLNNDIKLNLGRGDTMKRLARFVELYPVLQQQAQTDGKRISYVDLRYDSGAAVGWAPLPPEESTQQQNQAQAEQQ

QEALEERA6NELSBTRPG6mFYRL (sidechain bridge or staple) [24fδ]
Δt1/2 (delay in growth compared to DMSO-treated sample) [1, 5]: 4.1 h | covalent labeling of FtsQ(50–276) (up-shifted band) ([2]; pH 7.6): showed labeling of FtsQ(50–276)

QEALEERA6NELSBTRPG6mFYRL (sidechain bridge or staple) [24fγ, vinylsulfon-modified macrocyclic 24f, N-acetylated]
specificity of FtsQ(50–276) modification (number of up-shifted bands) [2]: multiple up-shifted bands | covalent labeling of FtsQ(50–276) (up-shifted band) ([2]; pH 7.6): showed labeling of FtsQ(50–276)

A6NELSBTRPG6mFYRL (sidechain bridge or staple) [17fγ, vinyl sulfone-modified 17-mer macrocyclic scaffold]
Δt1/2 (delay in growth compared to DMSO-treated sample) [1, 5]: 4.5 h | specificity of FtsQ(50–276) modification (number of up-shifted bands) [2]: two up-shifted bands

A6NELSBTRPG6mFYRL (sidechain bridge or staple) [17fδ, dichlorotriazin-modified 17-mer macrocyclic scaffold]
Δt1/2 (delay in growth compared to DMSO-treated sample) [1, 5]: 5.7 h

A6NELSBTRPG6mFY (sidechain bridge or staple) [15fα, 24fα lacking seven N-terminal and two C-terminal amino acids; negative control peptide]
lowest concentration with inhibitory effect on growth ([1]; concentration-dependent effect on growth after 15 h, highest tested concentration 100 μM, n = 3 replicates): > 100 µM | inhibitory activity on bacterial growth (OD600) ([1]; inhibitor c = 25 μM, OD600 every 15 min over 22 h, n = 3 technical replicates): did not exhibit inhibitory activity | FtsB-mNG midcell localization [3]: regular accumulation of FtsB-mNG at the midcell

QEALEERA6NELSBTRPG6mFYRL (sidechain bridge or staple) [24fβ]
Δt1/2 (delay in growth compared to DMSO-treated sample) [1, 5]: 1.7 h | covalent labeling of FtsQ(50–276) (up-shifted band) ([2]; pH 7.6): showed labeling of FtsQ(50–276)

QEALEERA6NELSBTRPG6mFYRL (sidechain bridge or staple) [24fα]
Δt1/2 (delay in growth compared to DMSO-treated sample) [1, 5]: 3.6 h | count ratio 24fα-modified / unmodified FtsQ, ID 2 HYTRNDDIR [4]: 1.60 | count ratio 24fα-modified / unmodified FtsQ, ID 3 […](*) [4]: 0.43 | count ratio 24fα-modified / unmodified FtsQ, ID 4 K/QWPDELK/[…] [4]: 1.01 | count ratio 24fα-modified / unmodified FtsQ, ID 5 […](*) [4]: 1.20 | count ratio 24fα-modified / unmodified FtsQ, ID 6 […]/EMGQMLAK(*) [4]: 1.00 | count ratio 24fα-modified / unmodified FtsQ, ID 7 DRFTLK [4]: 1.03 | count ratio 24fα-modified / unmodified FtsQ, ID 8 EAAMTAR* [4]: 0.62 | count ratio 24fα-modified / unmodified FtsQ, ID 9 R/[…] (contains K208) [4]: 1.13 | count ratio 24fα-modified / unmodified FtsQ, ID 10 LNLGR/GDTMK/R (contains K218) [4]: 0.56 | count ratio 24fα-modified / unmodified FtsQ, ID 11 […]/R (contains K239) [4]: 0.20 | count ratio 24fα-modified / unmodified FtsQ, ID 12 ISYVDLR [4]: 1.24 | count ratio 24fα-modified / unmodified FtsQ, ID 13 […] [4]: 2.47 | count ratio 24fα-modified / unmodified FtsQ, ID 1 LVLTGER ([4]; peptide 125 μM + FtsQ 50 μM overnight 37 °C): 1.17 | covalent labeling of FtsQ(50–276) (up-shifted band) ([2]; peptide 125 μM, FtsQ(50–276) 50 μM, 20 mM NH4HCO3 pH 7.6, 150 mM NaCl, 37 °C, 1 or 3 h): showed labeling of FtsQ(50–276)
